Type in all cases: cell-based
In data set [1] the test system is B16 melanoma cells. Briefly: Cytotoxicity against B16 melanoma cells (clonogenic assay). The note with it: read-out: LC-99 (concentration of compound required to kill 99% of B16 melanoma cells). Here is the method: ^a Concentration of compound required to kill 99% of B16 melanoma
cells in a clonogenic assay. Cells were treated with the compound for 2
B16 cells in exponential growth (2-3×10^6 cells in 10 ml of serum-free MEM medium) were treated with drug for 2 hr. The cells were separated, washed, and resuspended in MEM medium supplemented with 10% fetal bovine serum. The cells were plated in 60-mm culture dishes at a density of 50-50,000 cells/plate (depending upon the drug concentration used initially) and then incubated for 8 days in a CO2 incubator at 37° C. The colonies were fixed and stained with 0.5% crystal violet in ethanol and counted.

Data set [2] deals with L1210 leukemia cells. The experiment in a line: Growth inhibition against L1210 leukemia cells in vitro. The note with it: for IC50: Mus musculus. Here is the method: In addition to the B16 melanoma cell assay summarized in Table I, compounds 1a-e, 5 and 7 were evaluated for growth inhibitory activity against L1210 leukemia cells. Stock solutions of the compounds were prepared in 95% ethanol, and serial dilutions of drug were prepared in ethanol such that 50 μl of drug solution added to 10 ml of cell suspension gave the desired final concentration. L1210 cells in exponential growth were suspended in Fischer's medium supplemented with 10% horse serum, 1% glutamine, and 1% antibiotic-antimycotic solution to give 10-ml volumes of cell suspension at a final density of 3-6×10^4 /ml. Appropriate volumes of the solutions of each compound were transferred to the cell suspensions, and incubation was continued for 2, 8, 24, or 48 hr. The cells were spun down, resuspended in fresh drug-free medium, and returned to the incubator, then counted with a Coulter Counter 48 hr after treatment with the compound.
^a Data represents an average of at least two experiments; L1210 cell
were treated with compound for 2, 8, 24 and 48 hr. The drugcontaining
medium was removed, cells were washed, complete medium was added, and the
cells were incubated for 48 hr total. Cell counts were obtained 48 hr
after the start of treatment.

In data set [3] the test system is L1210 leukemia cells. Briefly: Reversal of L1210 growth inhibition by addition of thymidine. The conditions noted are these: 5 μM thymidine. From the text:
The relationship between potency and alkylating activity was confirmed by the synthesis and evaluation of the non-alkylating morpholino phosphoramidate 1e.

Where [4] appears, read: Mus musculus, B16, 2 hr treatment.
Where [5] appears, read: L1210, 48 h, read-out: IC50, treatment time 48 hr.
The mark [6] stands for this setting: L1210, read-out: IC50, treatment time 2 hr.
Where [7] appears, read: L1210, read-out: IC50, treatment time 8 hr.
[8] abbreviates: L1210, read-out: IC50, treatment time 24 hr.

The source of these data is patent publication US5233031A, “Phosphoramidate analogs of 2'-deoxyuridine” (University of Rochester, priority 1991, dated 1993).

Like-named read-outs stand apart in the source and are kept apart here.

For `CC1CC(C)(C)NC(CCOP(=O)(OC[C@H]2O[C@@H](n3cc(F)c(=O)[nH]c3=O)C[C@@H]2O)N2CCCCC2)O1` (some centres unmarked) [Compound 4, 5-Fluoro-2'-deoxy-5'-uridyl-[2-(4,4,6-trimethyltetrahydro-1,3-oxazin-2-yl)ethyl]piperidinophosphoramidate], the IC99 in data set [1] (setting [4]) amounted to 98 µM.

One may read the IC50 as the point on the concentration scale where inhibition reaches its midpoint. For `CC1CC(C)(C)NC(CCOP(=O)(OC[C@H]2O[C@@H](n3cc(F)c(=O)[nH]c3=O)C[C@@H]2O)N(C)CCCl)O1` (some centres unmarked) [Compound 1c], the IC50 came to 3.5 nM in data set [2] (setting [5]), 300 nM in data set [2] (setting [6]), 160 nM in data set [2] (setting [7]) and 25 nM in data set [2] (setting [8]). In addition, the IC99 in data set [1] (setting [4]) was 308 µM.

As to `Cc1cn([C@H]2C[C@H](O)[C@@H](COP(=O)(OCCC3NC(C)(C)CC(C)O3)N(CCBr)CCBr)O2)c(=O)[nH]c1=O` (some centres unmarked) [Compound 8, Thymidyl-[2-(4,4,6-trimethyltetrahydro-1,3-oxazin-2-yl)ethyl]bis-(2-bromoethyl)phosphoramidate], the IC99 in data set [1] (2 hr treatment) worked out at 120 µM.

As for `Cc1ccc(S(=O)(=O)OCCN(C)P(=O)(OCCC2NC(C)(C)CC(C)O2)OC[C@H]2O[C@@H](n3cc(F)c(=O)[nH]c3=O)C[C@@H]2O)cc1` (some centres unmarked) [Compound 1b], the IC50 is 2.5 nM in data set [2] (setting [5]), 160 nM in data set [2] (setting [6]), 60 nM in data set [2] (setting [7]) and 19 nM in data set [2] (setting [8]). Further, the IC99 in data set [1] (setting [4]) came out at 156 µM.

Turning to `CC1CC(C)(C)NC(CCOP(=O)(OC[C@H]2O[C@@H](n3cc(F)c(=O)[nH]c3=O)C[C@@H]2O)N(C)CCBr)O1` (some centres unmarked) [Compound 1a, 5-FIuoro-2'-deoxy-5'-uridyl-[2-(4,4,6-trimethyltetrahydro-1,3-oxazin-2-yl)ethyl]-N-methyl-N-(2-bromoethyl)phosphoramidate], the “inhibition of cell proliferation” value in data set [2] (1a: 2 hr contact time, iodo and tosyl analogs: compared with 1a) is recorded as “potent inhibitor of cell proliferation”. Also, the IC50 amounted to 2.5 nM in data set [2] (setting [5]), 120 nM in data set [2] (setting [6]), 50 nM in data set [2] (setting [7]) and 18 nM in data set [2] (setting [8]). In data set [2] (treatment times of 2, 8, 24, and 48 hr), the “potency relative to 5-FU (more potent)” value is listed as 1-2 orders of magnitude. The “inhibitory activity on addition of thymidine” value in data set [3] is reported as “completely blocked”. For the same molecule, the IC99 in data set [1] (setting [4]) turned out to be 100 µM.

Consider `Cc1cn([C@H]2C[C@H](O)[C@@H](COP(=O)(OCCC3NC(C)(C)CC(C)O3)N3CCOCC3)O2)c(=O)[nH]c1=O` (some centres unmarked) [Compound 3, Thymidyl-[2-(4,4,6-trimethyltetrahydro-1,3-oxazin-2-yl)ethyl]morpholinophosphoramidate], for which the IC99 in data set [1] (setting [4]) was 152 µM.

`CC1CC(C)(C)NC(CCOP(=O)(OC[C@H]2O[C@@H](n3ccc(=O)[nH]c3=O)C[C@@H]2O)N2CCOCC2)O1` (some centres unmarked) [Compound 2, 2'-Deoxy-5'-uridyl-[2-(4,4,6-trimethyltetrahydro-1,3-oxazin-2-yl)ethyl]morpholinophosphoramidate]: the IC99 in data set [1] (setting [4]) was determined as 190 µM.

`CC1CC(C)(C)NC(CCOP(=O)(OC[C@H]2O[C@@H](n3cc(F)c(=O)[nH]c3=O)C[C@@H]2O)N2CCOCC2)O1` (some centres unmarked) [Compound 1e, 5-Fluoro-2'-deoxy-5'-uridyl-[2-(4,4,6-trimethyltetrahydro-1,3-oxazin-2-yl)ethyl]-morpholinophosphoramidate]: the IC50 came out at 150 nM in data set [2] (setting [5]), 15000 nM in data set [2] (setting [6]), 5000 nM in data set [2] (setting [7]) and 900 nM in data set [2] (setting [8]). The “potency compared with 5-FU” value in data set [2] (long treatment times) is listed as “comparable in potency to 5-FU”. Also, in data set [1] (setting [4]), the IC99 came out at 216 µM.

Take `Cc1cn([C@H]2C[C@H](O)[C@@H](COP(=O)(OCCC3NC(C)(C)CC(C)O3)N(C)CCBr)O2)c(=O)[nH]c1=O` (some centres unmarked) [Compound 7, Thymidyl-[2-(4,4,-trimethyltetrahydro-1,3-oxazin-2-yl)ethyl]-N-methyl-N-(2-bromoethyl)phosphoramidate]: the IC50 in data set [2] (setting [5]) came to 590 nM; in data set [2] (setting [6]) it was 13000 nM; in data set [2] (setting [7]), 10500 nM; in data set [2] (setting [8]), 7000 nM. The IC99 in data set [1] (setting [4]) amounted to 165 µM.

In the case of `O=c1[nH]cc(F)c(=O)[nH]1` [5-Fluorouracil, reference compound], the IC50 in data set [2] (L1210, 2 hr treatment, counted 48 hr after start of treatment, average of at least two experiments, read-out: IC50, treatment time 2 hr) came out at 2200 nM; in data set [2] (L1210, 8 hr treatment, counted 48 hr after start of treatment, average of at least two experiments, read-out: IC50, treatment time 8 hr) it was 630 nM; in data set [2] (L1210, 24 hr treatment, counted 48 hr after start of treatment, average of at least two experiments, read-out: IC50, treatment time 24 hr), 220 nM; in data set [2] (L1210, 48 hr treatment, average of at least two experiments, read-out: IC50, treatment time 48 hr), 125 nM.

As for `CC1CC(C)(C)NC(CCOP(=O)(OC[C@H]2O[C@@H](n3cc(F)c(=O)[nH]c3=O)C[C@@H]2O)N(C)CCI)O1` (some centres unmarked) [Compound 1d, 5-Fluoro-2'deoxy-5'-uridyl-[2-(4,4,6-trimethyltetrahydro-1,3-oxazin-2-yl)ethyl]-N-methyl-N-(2-iodoethyl)phosphoramidate], the IC50 in data set [2] (setting [5]) worked out at 2 nM; in data set [2] (setting [6]) it was 190 nM; in data set [2] (setting [7]), 75 nM; in data set [2] (setting [8]), 6 nM. Besides, the IC99 in data set [1] (setting [4]) was determined as 95 µM.

`CC1CC(C)(C)NC(CCOP(=O)(OC[C@H]2O[C@@H](n3ccc(=O)[nH]c3=O)C[C@@H]2O)N(C)CCBr)O1` (some centres unmarked) [Compound 5, 2'-Deoxy-5'-uridyl-[2-(4,4,-trimethyltetrahydro-1,3-oxazin-2-yl)ethyl]-N-methyl-N-(2-bromoethyl)phosphoramidate]: the half-maximal inhibitory concentration (IC50) in data set [2] (setting [5]) came to 425 nM; in data set [2] (setting [6]) it was 20000 nM; in data set [2] (setting [7]), 8200 nM; in data set [2] (setting [8]) it was 1300 nM. In addition, in data set [1] (setting [4]), the IC99 turned out to be 318 µM.
